tested on: IL-17 production from human Th17 cells; assay: IL-17 production from human Th17 cells; assay type: cell-based; details: IL-17A in supernatant by ELISA after 6 days, human CD4+ T cells under Th17 differentiation;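 also: purified human CD4+ T cells activated with anti-CD3 plus anti-CD28 and a Th17-inducing cytokine cocktail, with compound at serial concentrations versus no compound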

Row | IC50 [nM] | Compound
1 | 12.2 | COc1cc(C#N)cc(C(=O)Nc2cnc3c(c([C@@H]4CCN(C(=O)C5CCCC5)[C@@H](C)C4)cn3C)c2C)c1 [Example 90, 3-cyano-N-(3-((2S,4R)-1-(cyclopentanecarbonyl)-2-methylpiperidin-4-yl)-1,4-dimethyl-1H-pyrrolo[2,3-b]pyridin-5-yl)-5-methoxybenzamide]
2 | 8 | Cc1c(NC(=O)c2cccc(C#N)c2)cnc2c1c(C1CCN(C(=O)[C@@H]3CCCC3C(C)C)CC1)cn2C (stereo in doubt) [Example 49, 3-cyano-N-(3-(1-((1R,2R)-2-isopropylcyclopentane-1-carbonyl)piperidin-4-yl)-1,4-dimethyl-1H-pyrrolo[2,3-b]pyridin-5-yl)benzamide]
3 | 4.1 | Cn1cc(C2[C@@H]3CC[C@H]2CN(C(=O)C2CCCC2)C3)c2c(C(F)(F)F)c(NC(=O)c3cccc(C#N)c3)cnc21 (stereo partly drawn) [Example 79, 3-cyano-N-{3-((1R,5S,8r)-3-(cyclopentanecarbonyl)-3-azabicyclo[3.2.1]octan-8-yl]-1-methyl-4-(trifluoromethyl)-1H-pyrrolo[2,3-b]pyridin-5-yl}benzamide]
4 | 24.7 | COc1ccc(C(=O)Nc2cnc3c(c(C4CCN(C(=O)C(C)C)CC4)cn3C)c2C)cc1C#N [Example 110, 3-cyano-N-(3-(1-isobutyrylpiperidin-4-yl)-1,4-dimethyl-1H-pyrrolo[2,3-b]pyridin-5-yl)-4-methoxybenzamide]
5 | 9.5 | CC(C)C(=O)N1CCC(c2cn(C)c3ncc(NC(=O)c4cccc(C#N)c4)c(C(F)(F)F)c23)CC1 [Example 5, 3-cyano-N-(3-(1-isobutyrylpiperidin-4-yl)-1-methyl-4-(trifluoromethyl)-1H-pyrrolo[2,3-b]pyridin-5-yl)benzamide]
6 | 18.9 | Cc1c(NC(=O)c2cc(Cl)ccc2F)cnc2c1c(C1CCN(C(=O)[C@H](C)C(C)(C)C)CC1)cn2C [Example 41, (R)-5-chloro-N-(1,4-dimethyl-3-(1-(2,3,3-trimethylbutanoyl)piperidin-4-yl)-1H-pyrrolo[2,3-b]pyridin-5-yl)-2-fluorobenzamide]
7 | 118 | Cn1cc(C2CCN(C(=O)[C@H]3CCCS3)CC2)c2c(C(F)(F)F)c(NC(=O)c3cccc(C#N)c3)cnc21 (single isomer, unassigned) [Example 28]
8 | 3.6 | Cc1c(NC(=O)c2cccc(C#N)c2)cnc2c1c([C@@H]1CCN(C(=O)CC3CCCC3)C(C)(C)C1)cn2C [Example 74, (R)-3-cyano-N-(3-(1-(2-cyclopentylacetyl)-2,2-dimethylpiperidin-4-yl)-1,4-dimethyl-1H-pyrrolo[2,3-b]pyridin-5-yl)benzamide]
9 | 6 | Cn1cc(C2CCN(C(=O)C3CCCC3)CC2)c2c(C(F)(F)F)c(NC(=O)c3cc(O)cc(C#N)c3)cnc21 [Example 55, 3-cyano-N-(3-(1-(cyclopentanecarbonyl)piperidin-4-yl)-1-methyl-4-(trifluoromethyl)-1H-pyrrolo[2,3-b]pyridin-5-yl)-5-hydroxybenzamide]
10 | 124 | Cc1c(NC(=O)c2cccc(C#N)c2)cnc2c1c([C@H]1C[C@H](C)N(C(=O)C3CCCC3)C[C@H]1C)cn2C (relative stereo) [Example 97, rel-3-cyano-N-(3-((2S,4S,5S)-1-(cyclopentanecarbonyl)-2,5-dimethylpiperidin-4-yl)-1,4-dimethyl-1H-pyrrolo[2,3-b]pyridin-5-yl)benzamide]
11 | 14.7 | COc1ccc(C(=O)Nc2cnc3c(c(C4[C@@H]5CC[C@H]4CN(C(=O)C4CCCC4)C5)cn3C)c2C)cc1C#N (stereo partly drawn) [Example 99, 3-cyano-N-(3-((1R,5S,8r)-3-(cyclopentanecarbonyl)-3-azabicyclo[3.2.1]octan-8-yl)-1,4-dimethyl-1H-pyrrolo[2,3-b]pyridin-5-yl)-4-methoxybenzamide]
12 | 9.9 | Cc1ccc(C(=O)Nc2cnc3c(c([C@@H]4CCN(C(=O)C5CCCC5)C(C)(C)C4)cn3C)c2C)cc1C#N [Example 59, (R)-3-cyano-N-(3-(1-(cyclopentanecarbonyl)-2,2-dimethylpiperidin-4-yl)-1,4-dimethyl-1H-pyrrolo[2,3-b]pyridin-5-yl)-4-methylbenzamide]
13 | 7.8 | CC(C)C(=O)N1CCC(c2cn(C)c3ncc(NC(=O)c4ccc(Cl)c(C#N)c4)c(C(F)(F)F)c23)CC1 [Example 11, 4-chloro-3-cyano-N-(3-(1-isobutyrylpiperidin-4-yl)-1-methyl-4-(trifluoromethyl)-1H-pyrrolo[2,3-b]pyridin-5-yl)benzamide]
14 | 6.8 | Cc1c(NC(=O)c2cccc(C#N)c2)cnc2c1c([C@@H]1CCN(C(=O)CC3CCCCC3)C(C)(C)C1)cn2C [Example 75, (R)-3-cyano-N-(3-(1-(2-cyclohexylacetyl)-2,2-dimethylpiperidin-4-yl)-1,4-dimethyl-1H-pyrrolo[2,3-b]pyridin-5-yl)benzamide]
15 | 10.2 | Cc1c(NC(=O)c2cc(O)cc(C#N)c2)cnc2c1c([C@@H]1CCN(C(=O)C3CCCC3)C(C)(C)C1)cn2C [Example 64, (R)-3-cyano-N-(3-(1-(cyclopentanecarbonyl)-2,2-dimethylpiperidin-4-yl)-1,4-dimethyl-1H-pyrrolo[2,3-b]pyridin-5-yl)-5-hydroxybenzamide]
16 | 13.7 | Cc1cccc(F)c1C(=O)N1CCC(c2cn(C)c3ncc(NC(=O)c4cccc(C#N)c4)c(C)c23)CC1 [Example 33, 3-cyano-N-(3-(1-(2-fluoro-6-methylbenzoyl)piperidin-4-yl)-1,4-dimethyl-1H-pyrrolo[2,3-b]pyridin-5-yl)benzamide]
17 | 15.8 | COc1cc(Cl)cc(C(=O)Nc2cnc3c(c([C@@H]4CCN(C(=O)C(C)C)C(C)(C)C4)cn3C)c2C)c1 [Example 62, (R)-3-chloro-N-(3-(1-isobutyryl-2,2-dimethylpiperidin-4-yl)-1,4-dimethyl-1H-pyrrolo[2,3-b]pyridin-5-yl)-5-methoxybenzamide]
